According to patent US9000159B2 (Glenmark Pharmaceuticals, S.A., priority 2009, dated 2015):

Target: T1, Human TRPA1 (Homo sapiens, UniProt O75762)
T1 construct: expressed in transfected cells; host or cells: CHO cells
Experiment: 45Calcium uptake assay: inhibition of AITC induced cellular uptake of radioactive calcium
Type: cell-based
Settings: AITC (30 μM) induced 45Ca uptake, Human TRPA1 expressing CHO cells; for inhibition at 1 µM: 1.0 μM test compound, read-out: Percentage inhibition at 1.0 μM; for inhibition at 10 µM: 10.0 μM test compound, read-out: Percentage inhibition at 10.0 μM; for IC50: read-out: Human IC50 value (range)
Source text: The illustrative examples of the present invention are screened for TRPA1 activity according to a modified procedure described in (a) Tóth, A. et al., Life Sciences, 2003, 73, 487-498. (b) McNamara C, R. et al., Proc. Natl. Acad. Sci. U.S.A., 2007, 104, 13525-13530. The screening of the compounds can be carried out by other methods and procedures known to persons skilled in the art.
Screening for TRPA1 Antagonist Using the ^45Calcium Uptake Assay
The inhibition of TRPA1 receptor activation was measured as inhibition of allyl isothiocyanate (AITC) induced cellular uptake of radioactive calcium. Test compounds were dissolved in DMSO to prepare 10 mM stock solution and then diluted using plain medium with 0.1% BSA and 1.8 mM CaCl2 to get desired concentration. Final concentration of DMSO in the reaction was 0.5% (v/v). Human TRPA1 expressing CHO cells were grown in F-12 DMEM medium with 10% FBS, 1% penicillin-streptomycin solution, 400 μg/ml of G-418. Cells were seeded 24 h prior to the assay in 96 well plates so as to get ˜50,000 cells per well on the day of experiment. Cells were treated with test compounds for 10 min followed by addition of AITC at a final concentration of 30 μM and 5 μCi/ml ^45Ca^+2 for 3 min. Cells were washed and lysed using buffer containing 1% Triton X-100, 0.1% deoxycholate and 0.1% SDS. Radioactivity in the lysate was measured in Packard Top count after addition of liquid scintillant. Concentration response curves were plotted as a % of maximal response obtained in the absence of test antagonist. IC50 value was calculated from concentration response curve by nonlinear regression analysis using GraphPad PRISM software.

T1 sequence (O75762 whole entry): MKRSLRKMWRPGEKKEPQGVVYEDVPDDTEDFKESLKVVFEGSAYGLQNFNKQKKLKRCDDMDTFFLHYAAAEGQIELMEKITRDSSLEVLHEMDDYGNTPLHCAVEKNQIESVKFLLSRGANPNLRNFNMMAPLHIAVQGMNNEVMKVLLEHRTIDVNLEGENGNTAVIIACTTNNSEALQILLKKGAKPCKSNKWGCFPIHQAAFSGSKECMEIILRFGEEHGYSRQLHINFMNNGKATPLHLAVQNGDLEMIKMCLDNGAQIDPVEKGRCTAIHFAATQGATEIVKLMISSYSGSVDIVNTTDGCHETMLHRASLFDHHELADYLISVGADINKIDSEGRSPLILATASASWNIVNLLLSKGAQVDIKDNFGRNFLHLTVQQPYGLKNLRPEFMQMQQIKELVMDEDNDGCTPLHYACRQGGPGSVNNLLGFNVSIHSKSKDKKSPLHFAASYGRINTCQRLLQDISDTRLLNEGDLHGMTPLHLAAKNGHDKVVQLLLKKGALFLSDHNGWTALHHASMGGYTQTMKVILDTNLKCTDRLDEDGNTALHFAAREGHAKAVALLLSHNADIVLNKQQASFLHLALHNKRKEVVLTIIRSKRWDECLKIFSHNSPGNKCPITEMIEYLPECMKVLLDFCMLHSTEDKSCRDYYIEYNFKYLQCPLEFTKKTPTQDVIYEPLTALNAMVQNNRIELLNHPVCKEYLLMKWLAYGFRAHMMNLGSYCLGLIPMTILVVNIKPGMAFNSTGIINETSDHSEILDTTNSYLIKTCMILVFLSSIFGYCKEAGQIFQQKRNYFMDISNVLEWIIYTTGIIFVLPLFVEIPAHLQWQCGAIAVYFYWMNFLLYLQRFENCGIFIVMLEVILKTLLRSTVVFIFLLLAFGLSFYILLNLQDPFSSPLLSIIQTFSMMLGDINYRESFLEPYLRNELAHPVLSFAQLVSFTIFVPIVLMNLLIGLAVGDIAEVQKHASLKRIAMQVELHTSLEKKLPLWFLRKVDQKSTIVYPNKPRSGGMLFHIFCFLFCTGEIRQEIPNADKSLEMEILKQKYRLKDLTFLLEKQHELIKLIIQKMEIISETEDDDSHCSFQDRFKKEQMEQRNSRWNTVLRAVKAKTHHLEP

| SMILES | inhibition at 1 µM [%] | inhibition at 10 µM [%] | IC50 [nM] |
| --- | --- | --- | --- |
| Cn1c(=O)c2c(CC(=O)Nc3nc(-c4ccc(F)c(C(F)(F)F)c4F)cs3)cn(C)c2n(C)c1=O [Example 43, N-{4-[2,4-Difluoro-3-(trifluoromethyl)phenyl]-1,3-thiazol-2-yl}-2-(1,3,7-trimethyl-2,4-dioxo-2,3,4,7-tetrahydro-1H-pyrrolo[2,3-d]pyrimidin-5-yl)acetamide] | 30.1 | 41.6 | – |
| Cn1c(=O)c2c(CC(=O)Nc3nc(-c4cc(F)c(OCC(C)(C)C)c(F)c4)cs3)cn(C)c2n(C)c1=O [Example 42, N-[4-(3,5-Difluoro-4-(2,2-dimethylpropoxy)phenyl)-1,3-thiazol-2-yl]-2-(1,3,7-trimethyl-2,4-dioxo-2,3,4,7-tetrahydro-1H-pyrrolo[2,3-d]pyrimidin-5-yl)acetamide] | 41.1 | 63.1 | – |
| Cn1c(=O)c2c(ccn2CC(=O)Nc2nc(-c3cc(Cl)c(OCCC(F)(F)C(F)(F)F)c(Cl)c3)cs2)n(C)c1=O [Example 15, N-{4-[3,5-Dichloro-4-(3,3,4,4,4-pentafluorobutoxy)phenyl]-1,3-thiazol-2-yl}-2-(1,3-dimethyl-2,4-dioxo-1,2,3,4-tetrahydro-5H-pyrrolo[3,2-d]pyrimidin-5-yl)acetamide] | 76.5 | 92.5 | 50 to 100 |
| Cn1c(=O)c2c(ccn2CC(=O)Nc2nc(-c3ccc(F)cc3F)cs2)n(C)c1=O [Example 1, N-[4-(2,4-Difluorophenyl)-1,3-thiazol-2-yl]-2-(1,3-dimethyl-2,4-dioxo-1,2,3,4-tetrahydro-5H-pyrrolo[3,2-d]pyrimidin-5-yl)acetamide] | 23.1 | 21.4 | – |
| Cn1nc2c(c1CC(=O)Nc1nc(-c3cc(F)c(OC(F)F)c(F)c3)cs1)c(=O)n(C)c(=O)n2C [Example 64, N-{4-[4-(Difluoromethoxy)-3,5-difluorophenyl]-1,3-thiazol-2-yl}-2-(2,5,7-trimethyl-4,6-dioxo-4,5,6,7-tetrahydro-2H-pyrazolo[3,4-d]pyrimidin-3-yl)acetamide] | 97.8 | 98.3 | < 50 |
| Cc1cc2c(c(=O)n(C)c(=O)n2C)n1CC(=O)Nc1nc(-c2ccc(OCC(C)(C)C)c(Cl)c2)cs1 [Example 32, N-{4-[3-Chloro-4-(2,2-dimethylpropoxy)phenyl]-1,3-thiazol-2-yl}-2-(1,3,6-trimethyl-2,4-dioxo-1,2,3,4-tetrahydro-5H-pyrrolo[3,2-d]pyrimidin-5-yl)acetamide] | 92.8 | 96.3 | < 50 |
| Cn1nc2c(c1CC(=O)Nc1nc(-c3cc(C(F)(F)F)ccc3F)cs1)c(=O)n(C)c(=O)n2C [Example 57, N-{4-[2-Fluoro-5-(trifluoromethyl)phenyl]-1,3-thiazol-2-yl}-2-(2,5,7-trimethyl-4,6-dioxo-4,5,6,7-tetrahydro-2H-pyrazolo[3,4-d]pyrimidin-3-yl)acetamide] | 43 | 49.8 | – |
| Cn1nc2c(c1CC(=O)Nc1nc(-c3ccc(F)c(C(F)(F)F)c3)cs1)c(=O)n(C)c(=O)n2C [Example 53, N-{4-[4-Fluoro-3-(trifluoromethyl)phenyl]-1,3-thiazol-2-yl}-2-(2,5,7-trimethyl-4,6-dioxo-4,5,6,7-tetrahydro-2H-pyrazolo[3,4-d]pyrimidin-3-yl)acetamide] | 97.2 | 98.6 | < 50 |
| Cn1c(=O)c2c(ccn2CC(=O)Nc2nc(-c3cc(F)c(OCC4CCC4)c(F)c3)cs2)n(C)c1=O [Example 18, 2-(1,3-Dimethyl-2,4-dioxo-1,2,3,4-tetrahydro-5H-pyrrolo[3,2-d]pyrimidin-5-yl)-N-{4-[4-(cyclobutylmethoxy)-3,5-difluorophenyl]-1,3-thiazol-2-yl}acetamide] | 38.4 | 38.7 | – |
